# Laboratory results: ChEMBL document CHEMBL3885881, “DrugMatrix”
# Organism: Rattus norvegicus
# Experiment: DrugMatrix - Regimen: Daily Repeat
# Format: toxicity, organism-based, Sprague-Dawley
# Design: regimen Daily Repeat, gender Male, age 6-8 weeks
# Settings: in vivo, po, route oral GAVAGE, […]; for ABSOLUTE BASOPHIL / BASOPHIL / NUCLEATED RED BLOOD CELLS / ABSOLUTE EOSINOPHIL / EOSINOPHIL / HEMOGLOBIN / ABSOLUTE LYMPHOCYTE / ABSOLUTE MONOCYTE / ABSOLUTE SEGMENTED NEUTROPHIL / ERYTHROCYTE COUNT / HEMATOCRIT / LEUKOCYTE COUNT / LYMPHOCYTE / MEAN CORPUSCULAR HEMOGLOBIN / MEAN CORPUSCULAR HEMOGLOBIN CONCENTRATION / MEAN CORPUSCULAR VOLUME / MONOCYTE / NEUTROPHIL / PLATELET COUNT: tissue Blood; for TOTAL BILIRUBIN / ALANINE AMINOTRANSFERASE / ALBUMIN / ALKALINE PHOSPHATASE / ASPARTATE AMINOTRANSFERASE / BLOOD UREA NITROGEN / CARBON DIOXIDE / CHLORIDE / CHOLESTEROL / CREATINE PHOSPHOKINASE / CREATININE / GLUCOSE / LACTATE DEHYDROGENASE / LIPASE / PHOSPHORUS / POTASSIUM / SODIUM / TOTAL PROTEIN / URIC ACID: tissue Plasma
# [1] = 0 mg/kg, 72 h, dose level Control, time 3 day
# [2] = 0 mg/kg, 120 h, dose level Control, time 5 day
# [3] = 3 mg/kg, 72 h, dose level Low, time 3 day
# [4] = 3 mg/kg, 120 h, dose level Low, time 5 day
# [5] = 9 mg/kg, 72 h, dose level M1, time 3 day
smiles,measurement,setting,value
CS(=O)(=O)OCCCCOS(C)(=O)=O [BUSULFAN],ABSOLUTE BASOPHIL,[1],0 CELLS/uL
same,BASOPHIL,[1],0%
same,NUCLEATED RED BLOOD CELLS,[1],0 /100WBC
same,TOTAL BILIRUBIN,[1],0.2 mg/dL
same,ABSOLUTE BASOPHIL,[2],0 CELLS/uL
same,ABSOLUTE EOSINOPHIL,[2],0 CELLS/uL
same,BASOPHIL,[2],0%
same,EOSINOPHIL,[2],0%
same,HEMOGLOBIN,[2],13.5 G/DL
same,ABSOLUTE BASOPHIL,[3],0 CELLS/uL
same,ABSOLUTE EOSINOPHIL,[3],108.33 CELLS/uL
same,ABSOLUTE LYMPHOCYTE,[3],8850.33 CELLS/uL
same,ABSOLUTE MONOCYTE,[3],34.33 CELLS/uL
same,ABSOLUTE SEGMENTED NEUTROPHIL,[3],773.67 CELLS/uL
same,BASOPHIL,[3],0%
same,EOSINOPHIL,[3],1%
same,ERYTHROCYTE COUNT,[3],4.94 x10E6/uL
same,HEMATOCRIT,[3],32%
same,HEMOGLOBIN,[3],12.67 G/DL
same,LEUKOCYTE COUNT,[3],9.77 x10E3/uL
same,LYMPHOCYTE,[3],91%
same,MEAN CORPUSCULAR HEMOGLOBIN,[3],25.67 pg
same,MEAN CORPUSCULAR HEMOGLOBIN CONCENTRATION,[3],39.6 G/DL
same,MEAN CORPUSCULAR VOLUME,[3],64.8 fL
same,MONOCYTE,[3],0.33%
same,NEUTROPHIL,[3],7.67%
same,NUCLEATED RED BLOOD CELLS,[3],0 /100WBC
same,PLATELET COUNT,[3],940.33 x10E3/uL
same,ALANINE AMINOTRANSFERASE,[3],62.33 u/L
same,ALBUMIN,[3],3.77 G/DL
same,ALKALINE PHOSPHATASE,[3],286.67 u/L
same,ASPARTATE AMINOTRANSFERASE,[3],86.67 u/L
same,BLOOD UREA NITROGEN,[3],12.33 mg/dL
same,CARBON DIOXIDE,[3],33.5 mmol/L
same,CHLORIDE,[3],101 MEQ/L
same,CHOLESTEROL,[3],62.33 mg/dL
same,CREATINE PHOSPHOKINASE,[3],229.33 u/L
same,CREATININE,[3],0.12 mg/dL
same,GLUCOSE,[3],162.67 mg/dL
same,LACTATE DEHYDROGENASE,[3],71.67 u/L
same,LIPASE,[3],12 u/L
same,PHOSPHORUS,[3],10 mg/dL
same,POTASSIUM,[3],5.22 MEQ/L
same,SODIUM,[3],144.35 MEQ/L
same,TOTAL BILIRUBIN,[3],0.13 mg/dL
same,TOTAL PROTEIN,[3],5.37 G/DL
same,URIC ACID,[3],0.47 mg/dL
same,ABSOLUTE BASOPHIL,[4],0 CELLS/uL
same,ABSOLUTE EOSINOPHIL,[4],12.67 CELLS/uL
same,ABSOLUTE LYMPHOCYTE,[4],5804 CELLS/uL
same,ABSOLUTE MONOCYTE,[4],73.33 CELLS/uL
same,ABSOLUTE SEGMENTED NEUTROPHIL,[4],310 CELLS/uL
same,BASOPHIL,[4],0%
same,EOSINOPHIL,[4],0.33%
same,ERYTHROCYTE COUNT,[4],5.4 x10E6/uL
same,HEMATOCRIT,[4],33.53%
same,HEMOGLOBIN,[4],12.9 G/DL
same,LEUKOCYTE COUNT,[4],6.2 x10E3/uL
same,LYMPHOCYTE,[4],92.67%
same,MEAN CORPUSCULAR HEMOGLOBIN,[4],23.9 pg
same,MEAN CORPUSCULAR HEMOGLOBIN CONCENTRATION,[4],38.5 G/DL
same,MEAN CORPUSCULAR VOLUME,[4],62.07 fL
same,MONOCYTE,[4],1.33%
same,NEUTROPHIL,[4],5.67%
same,NUCLEATED RED BLOOD CELLS,[4],0 /100WBC
same,PLATELET COUNT,[4],1068.67 x10E3/uL
same,ALANINE AMINOTRANSFERASE,[4],47.67 u/L
same,ALBUMIN,[4],4.13 G/DL
same,ALKALINE PHOSPHATASE,[4],363 u/L
same,ASPARTATE AMINOTRANSFERASE,[4],87 u/L
same,BLOOD UREA NITROGEN,[4],12.33 mg/dL
same,CARBON DIOXIDE,[4],28.67 mmol/L
same,CHLORIDE,[4],100 MEQ/L
same,CHOLESTEROL,[4],62 mg/dL
same,CREATINE PHOSPHOKINASE,[4],290.67 u/L
same,CREATININE,[4],0.16 mg/dL
same,GLUCOSE,[4],165.67 mg/dL
same,LACTATE DEHYDROGENASE,[4],77.67 u/L
same,LIPASE,[4],13.33 u/L
same,PHOSPHORUS,[4],9.3 mg/dL
same,POTASSIUM,[4],5.76 MEQ/L
same,SODIUM,[4],145.25 MEQ/L
same,TOTAL BILIRUBIN,[4],0.17 mg/dL
same,TOTAL PROTEIN,[4],6 G/DL
same,URIC ACID,[4],0.53 mg/dL
same,ABSOLUTE BASOPHIL,[5],0 CELLS/uL
same,ABSOLUTE EOSINOPHIL,[5],0 CELLS/uL
same,ABSOLUTE LYMPHOCYTE,[5],12304.67 CELLS/uL
same,ABSOLUTE MONOCYTE,[5],88.33 CELLS/uL
same,ABSOLUTE SEGMENTED NEUTROPHIL,[5],840.33 CELLS/uL
same,BASOPHIL,[5],0%
same,EOSINOPHIL,[5],0%
same,ERYTHROCYTE COUNT,[5],5.46 x10E6/uL
same,HEMATOCRIT,[5],33.63%
same,HEMOGLOBIN,[5],13.23 G/DL
same,LEUKOCYTE COUNT,[5],13.23 x10E3/uL
same,LYMPHOCYTE,[5],92.67%
same,MEAN CORPUSCULAR HEMOGLOBIN,[5],24.27 pg
same,MEAN CORPUSCULAR HEMOGLOBIN CONCENTRATION,[5],39.37 G/DL
same,MEAN CORPUSCULAR VOLUME,[5],61.57 fL
same,MONOCYTE,[5],0.67%
same,NEUTROPHIL,[5],6.67%
same,NUCLEATED RED BLOOD CELLS,[5],0 /100WBC
same,PLATELET COUNT,[5],1234.33 x10E3/uL
same,ALANINE AMINOTRANSFERASE,[5],56.33 u/L
same,ALBUMIN,[5],4.03 G/DL
same,ALKALINE PHOSPHATASE,[5],362 u/L
same,ASPARTATE AMINOTRANSFERASE,[5],76 u/L
same,BLOOD UREA NITROGEN,[5],13 mg/dL
same,CARBON DIOXIDE,[5],29.33 mmol/L
same,CHLORIDE,[5],102.33 MEQ/L
same,CHOLESTEROL,[5],77 mg/dL
same,CREATINE PHOSPHOKINASE,[5],320.33 u/L
same,CREATININE,[5],0.19 mg/dL
same,GLUCOSE,[5],162.67 mg/dL
same,LACTATE DEHYDROGENASE,[5],161.33 u/L
same,LIPASE,[5],12 u/L
same,PHOSPHORUS,[5],10.37 mg/dL
